Results from article PMC6294172 (Stem Cell Reports, 2018).
Blank lines part the entries; values can stand above or below the compound they belong to.

Assays:
[1] = tested on: JAK/STAT signals; settings: ref Liu et al., 2011; cited from earlier work
[2] = tested on: hiPS-SIECs monolayer; experiment: TEER measurement of hiPS-SIECs monolayer; assay type: cell-based, human; settings: 10 mM C10, hiPS-SIECs monolayer
[3] = tested on: hiPS-SIECs monolayer; experiment: LY and FD4 permeability tests across hiPS-SIECs monolayer; settings: treatment with C10, hiPS-SIECs monolayer
[4] = tested on: human iPSC (Tic)-derived definitive endoderm cells; experiment: Intestinal progenitor cell differentiation; assay type: cell-based; settings: 4 days
[5] = tested on: human iPSC (Tic)-derived definitive endoderm cells; experiment: CDX2 protein expression by western blotting; assay type: cell-based; settings: 4 days treatment
[6] = tested on: human iPSC-derived intestinal progenitor cells; experiment: Percentage of CDX2-positive cells by FACS analysis; assay type: cell-based; settings: LY2090314-treated cells
[7] = tested on: CYP3A4
[8] = molecular target: T1, PEPT1 (Homo sapiens, UniProt P46059); experiment: Peptide-uptake analysis of D-Ala-Leu-Lys-AMCA in hiPS-SIECs; assay type: cell-based; settings: 100 μM captopril, 25 μM D-Ala-Leu-Lys-AMCA for 4 hr
T1 sequence (P46059 1-708): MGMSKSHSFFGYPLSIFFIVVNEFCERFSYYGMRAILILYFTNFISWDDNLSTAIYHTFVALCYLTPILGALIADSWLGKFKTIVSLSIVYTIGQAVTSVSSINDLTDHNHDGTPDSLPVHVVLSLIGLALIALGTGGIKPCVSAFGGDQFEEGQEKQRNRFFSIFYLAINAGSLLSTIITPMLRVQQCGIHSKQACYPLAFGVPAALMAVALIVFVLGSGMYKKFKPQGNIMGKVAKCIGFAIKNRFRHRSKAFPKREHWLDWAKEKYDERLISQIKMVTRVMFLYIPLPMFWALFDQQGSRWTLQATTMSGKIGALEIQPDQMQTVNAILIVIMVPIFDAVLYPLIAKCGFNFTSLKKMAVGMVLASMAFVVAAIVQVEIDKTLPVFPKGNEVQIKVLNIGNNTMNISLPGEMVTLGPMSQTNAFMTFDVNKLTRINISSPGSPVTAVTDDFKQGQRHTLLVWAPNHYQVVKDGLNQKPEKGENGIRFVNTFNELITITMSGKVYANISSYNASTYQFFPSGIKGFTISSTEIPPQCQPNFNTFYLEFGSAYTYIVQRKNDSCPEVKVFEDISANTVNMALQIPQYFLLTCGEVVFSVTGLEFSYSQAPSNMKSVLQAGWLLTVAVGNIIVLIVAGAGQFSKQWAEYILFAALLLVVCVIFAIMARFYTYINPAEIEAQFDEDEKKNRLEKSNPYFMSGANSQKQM

[9] = molecular target: T1, PEPT1; experiment: PEPT1 permeability test with glycylsarcosine across hiPS-SIECs monolayer; assay type: in vitro ADME; settings: apical to basolateral, 100 μM captopril
[10] = tested on: neonatal rat small intestinal epithelial cells; settings: ref Booth et al., 1995; Leeper et al., 1998; McDonald and Henning, 1992; cited from earlier work
[11] = molecular target: T2, CES2 (Homo sapiens, UniProt O00748); experiment: CES2 activity in hiPS-SIECs with fluorescein diacetate substrate; settings: 1 mM loperamide, 10 μM fluorescein diacetate substrate
T2 sequence (O00748 27-559): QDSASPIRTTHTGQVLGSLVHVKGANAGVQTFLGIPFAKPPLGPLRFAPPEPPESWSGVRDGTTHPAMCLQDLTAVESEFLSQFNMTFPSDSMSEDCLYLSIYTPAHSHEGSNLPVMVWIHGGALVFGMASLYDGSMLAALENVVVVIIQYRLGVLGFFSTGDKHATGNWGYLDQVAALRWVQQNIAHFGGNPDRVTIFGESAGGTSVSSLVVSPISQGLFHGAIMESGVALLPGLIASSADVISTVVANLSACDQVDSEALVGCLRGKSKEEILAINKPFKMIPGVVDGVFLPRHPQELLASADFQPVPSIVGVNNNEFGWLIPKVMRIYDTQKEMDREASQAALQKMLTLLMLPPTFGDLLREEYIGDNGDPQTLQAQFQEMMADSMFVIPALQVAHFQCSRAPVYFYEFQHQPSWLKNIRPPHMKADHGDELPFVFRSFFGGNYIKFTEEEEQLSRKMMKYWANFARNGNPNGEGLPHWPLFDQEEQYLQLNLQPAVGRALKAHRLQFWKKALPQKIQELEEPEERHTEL

[12] = tested on: small intestinal epithelial cells; settings: ref Booth et al., 1995; Leeper et al., 1998; McDonald and Henning, 1992; cited from earlier work
[13] = 20 nM, compared with definitive endoderm cells (DECs)

Compound: O=C1Nc2cc(Br)ccc2/C1=C1/Nc2ccccc2/C1=N\O [BIO, (2′Z,3′E)-6-bromoindirubin-3′-oxime]
effect on JAK/STAT signals (off-target) [1]: inhibition

FD4 apparent membrane permeability coefficient (Papp) [3]: increased
LY apparent membrane permeability coefficient (Papp) [3]: increased
Compound: CCCCCCCCCC(=O)O [C10, capric acid]
TEER value [2]: significantly decreased

Compound: O=C1NC(=O)C(c2cnc3ccccn23)=C1c1cn2c3c(cc(F)cc13)CN(C(=O)N1CCCCC1)CC2 [LY2090314]
expression level of hepatic progenitor marker AFP [4, 13]: lower
expression level of intestinal progenitor cell marker CDX2 [4, 13]: increased
expression level of pancreatic progenitor cell marker PDX1 [4, 13]: lower
expression levels of CDX2, concentration dependence ([4]; 1-20 nM, relative to DMSO-treated cells): increased in a concentration-dependent manner
CDX2 protein expression level [5]: increased
percentage of CDX2-positive cells (FACS) [6]: approximately 50%

CYP3A4 expression levels [7]: increased
Compound: C=C1/C(=C\C=C2/CCC[C@]3(C)[C@@H]([C@H](C)CCCC(C)(C)O)CC[C@@H]23)C[C@@H](O)C[C@@H]1O [VD3, 1α,25-dihydroxyvitamin D3]

uptake of D-Ala-Leu-Lys-AMCA in presence of inhibitor [8]: inhibited
Papp value of glycylsarcosine [9]: significantly decreased
Compound: C[C@H](CS)C(=O)N1CCC[C@H]1C(=O)O [captopril]

Compound: C[C@@H]1C[C@H]2[C@@H]3CCC4=CC(=O)C=C[C@]4(C)[C@@]3(F)[C@@H](O)C[C@]2(C)[C@@]1(O)C(=O)CO [dexamethasone]
maturation in neonatal rat small intestinal epithelial cells [10]: promotes

CES2 activity in the hiPS-SIECs [11]: significantly inhibited
Compound: CN(C)C(=O)C(CCN1CCC(O)(c2ccc(Cl)cc2)CC1)(c1ccccc1)c1ccccc1 [loperamide]

Compound: IGF-1: insulin-like growth factor 1, used at 20 ng/mL
proliferation of small intestinal epithelial cells [12]: promotes
